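All cell lines were grown in 96-well plates and treated with compound for 48 hours. GI50: concentration for 50% inhibition of growth.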 Active and inactive are the calls of the source. Rule as the data show it: active = GI50 up to about 1.1 µM and inactive = higher.
Columns and labels:
Assay in all cases: DTP human tumour cell line panel, 48 h
SK-MEL-2 = test system: SK-MEL-2
KM12 = test system: KM12
MDA-MB-435 = test system: MDA-MB-435
NCI/ADR-RES = test system: NCI/ADR-RES
K562 = test system: K562
EKVX = test system: EKVX
CCRF-CEM = test system: CCRF-CEM
BT-549 = test system: BT-549
SR = test system: SR
OVCAR-5 = test system: OVCAR-5
PC-3 = test system: PC-3
RXF 393 = test system: RXF 393
CAKI-1 = test system: CAKI-1
OVCAR-4 = test system: OVCAR-4
Hs-578T = test system: Hs-578T
NCI-H522 = test system: NCI-H522
OVCAR-8 = test system: OVCAR-8
MDA-MB-231 = test system: MDA-MB-231
786-0 = test system: 786-0
A498 = test system: A498
ACHN = test system: ACHN
Malme-3M = test system: Malme-3M
OVCAR-3 = test system: OVCAR-3
HOP-62 = test system: HOP-62
M14 = test system: M14
TK-10 = test system: TK-10
NCI-H23 = test system: NCI-H23
MOLT-4 = test system: MOLT-4
LOX IMVI = test system: LOX IMVI
HCT-116 = test system: HCT-116
HCC 2998 = test system: HCC 2998
MDA-N = test system: MDA-N
SF-295 = test system: SF-295
SNB-19 = test system: SNB-19
SF-268 = test system: SF-268
UACC-257 = test system: UACC-257
HT-29 = test system: HT-29
A549 = test system: A549
U-251 = test system: U-251
HOP-92 = test system: HOP-92
UACC-62 = test system: UACC-62
NCI-H460 = test system: NCI-H460
SK-OV-3 = test system: SK-OV-3
SNB-75 = test system: SNB-75
T47D = test system: T47D
COLO 205 = test system: COLO 205
SN12C = test system: SN12C
MCF7 = test system: MCF7
HCT-15 = test system: HCT-15
SK-MEL-5 = test system: SK-MEL-5
DU-145 = test system: DU-145
UO-31 = test system: UO-31
RPMI-8226 = test system: RPMI-8226

For Clc1ccc(NCc2nnc(CCCCCCCCc3nnc(CNc4ccc(Cl)cc4)o3)o2)cc1, the GI50 (SK-MEL-2) was > 100 µM (inactive), the GI50 (KM12) was > 100 µM (inactive) and the GI50 (MDA-MB-435) was > 100 µM (inactive). The GI50 (NCI/ADR-RES) was > 100 µM (inactive), the GI50 (K562) was > 100 µM (inactive) and the GI50 (EKVX) was > 100 µM (inactive). The GI50 (CCRF-CEM) was > 100 µM (inactive), the GI50 (BT-549) was > 100 µM (inactive) and the GI50 (SR) was > 100 µM (inactive). The GI50 (OVCAR-5) was > 100 µM (inactive), the GI50 (PC-3) was > 100 µM (inactive) and the GI50 (RXF 393) was > 100 µM (inactive). The GI50 (CAKI-1) was > 100 µM (inactive), the GI50 (OVCAR-4) was > 100 µM (inactive) and the GI50 (Hs-578T) was > 100 µM (inactive). For the same molecule, the GI50 (NCI-H522) was > 100 µM (inactive), the GI50 (OVCAR-8) was > 100 µM (inactive) and the GI50 (MDA-MB-231) was > 100 µM (inactive). For the same molecule, the GI50 (786-0) was > 100 µM (inactive), the GI50 (A498) was > 100 µM (inactive) and the GI50 (ACHN) was > 100 µM (inactive). The GI50 (Malme-3M) was > 100 µM (inactive), the GI50 (OVCAR-3) was > 100 µM (inactive) and the GI50 (HOP-62) was > 100 µM (inactive). For the same molecule, the GI50 (M14) was > 100 µM (inactive), the GI50 (TK-10) was > 100 µM (inactive) and the GI50 (NCI-H23) was > 100 µM (inactive). The GI50 (MOLT-4) was > 100 µM (inactive), the GI50 (LOX IMVI) was > 100 µM (inactive) and the GI50 (HCT-116) was > 100 µM (inactive). The GI50 (HCC 2998) was > 100 µM (inactive), the GI50 (MDA-N) was > 100 µM (inactive) and the GI50 (SF-295) was > 100 µM (inactive). For the same molecule, the GI50 (SNB-19) was > 100 µM (inactive), the GI50 (SF-268) was > 100 µM (inactive) and the GI50 (UACC-257) was > 100 µM (inactive). The GI50 (HT-29) was > 100 µM (inactive), the GI50 (A549) was > 100 µM (inactive) and the GI50 (U-251) was > 100 µM (inactive). The GI50 (HOP-92) was > 100 µM (inactive), the GI50 (UACC-62) was > 100 µM (inactive) and the GI50 (NCI-H460) was > 100 µM (inactive). For the same molecule, the GI50 (SK-OV-3) was > 100 µM (inactive), the GI50 (SNB-75) was > 100 µM (inactive) and the GI50 (T47D) was > 100 µM (inactive). For the same molecule, the GI50 (COLO 205) was > 100 µM (inactive), the GI50 (SN12C) was > 100 µM (inactive) and the GI50 (MCF7) was > 100 µM (inactive). The GI50 (HCT-15) was greater than 100 µM, the GI50 (SK-MEL-5) was > 100 µM (inactive) and the GI50 (DU-145) was > 100 µM (inactive). For the same molecule, the GI50 (UO-31) was > 100 µM (inactive) and the GI50 (RPMI-8226) was > 100 µM (inactive).
